# According to ChEMBL document CHEMBL5696442, “Discovery of type II inhibitors of TGFβ-activated kinase 1 (TAK1) and mitogen-activated protein kinase kinase kinase kinase 2 (MAP4K2)” (J Med Chem, 2015):
# The source made the active and inactive calls. No cut-off for these calls is given here.
# Tests used:
# [1] = target: RAF proto-oncogene serine/threonine-protein kinase (Homo sapiens, UniProt P04049); assay: Inhibition of RAF1 Lys2 labeling site in human Huh-7 cells at 1 uM by KiNativ Profiling analysis relative to control; assay type: cell-based
# Chain of RAF proto-oncogene serine/threonine-protein kinase (P04049 whole entry): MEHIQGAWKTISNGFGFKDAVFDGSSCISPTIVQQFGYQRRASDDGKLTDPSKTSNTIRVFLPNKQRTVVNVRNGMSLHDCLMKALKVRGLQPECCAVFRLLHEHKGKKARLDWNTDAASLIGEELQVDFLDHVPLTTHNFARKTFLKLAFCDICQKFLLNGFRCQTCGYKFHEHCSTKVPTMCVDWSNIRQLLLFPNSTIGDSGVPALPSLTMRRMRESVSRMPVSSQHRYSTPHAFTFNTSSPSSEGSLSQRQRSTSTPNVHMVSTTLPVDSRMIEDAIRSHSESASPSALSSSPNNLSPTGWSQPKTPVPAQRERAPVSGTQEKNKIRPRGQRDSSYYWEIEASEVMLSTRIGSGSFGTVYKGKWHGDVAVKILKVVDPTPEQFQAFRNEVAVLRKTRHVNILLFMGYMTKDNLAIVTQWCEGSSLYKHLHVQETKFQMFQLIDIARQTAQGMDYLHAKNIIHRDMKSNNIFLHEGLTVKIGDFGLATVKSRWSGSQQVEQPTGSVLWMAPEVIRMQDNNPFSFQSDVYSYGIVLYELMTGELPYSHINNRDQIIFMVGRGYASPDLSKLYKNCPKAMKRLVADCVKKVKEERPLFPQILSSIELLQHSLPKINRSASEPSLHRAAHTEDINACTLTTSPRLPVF
# [2] = target: Serine/threonine-protein kinase 26 (Homo sapiens) (UniProt Q9P289); assay: Inhibition of MST4 Lys1 labeling site in human Huh-7 cells at 1 uM by KiNativ Profiling analysis relative to control; assay type: cell-based
# Chain of Serine/threonine-protein kinase 26 (Homo sapiens) (Q9P289 2-416 limits assumed): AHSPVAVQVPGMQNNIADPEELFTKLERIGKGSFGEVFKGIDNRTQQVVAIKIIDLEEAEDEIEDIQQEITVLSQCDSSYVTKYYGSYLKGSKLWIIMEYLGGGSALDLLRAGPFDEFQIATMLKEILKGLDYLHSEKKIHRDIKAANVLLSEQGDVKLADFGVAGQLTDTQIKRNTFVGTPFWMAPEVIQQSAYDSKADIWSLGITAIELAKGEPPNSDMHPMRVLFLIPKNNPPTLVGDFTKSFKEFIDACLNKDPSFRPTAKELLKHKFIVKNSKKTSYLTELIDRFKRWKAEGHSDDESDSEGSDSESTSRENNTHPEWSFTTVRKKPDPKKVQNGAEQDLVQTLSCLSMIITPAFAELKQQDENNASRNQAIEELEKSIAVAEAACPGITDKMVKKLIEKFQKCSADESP
# [3] = target: Cyclin-dependent kinase 17 (Homo sapiens) (UniProt Q00537); assay: Inhibition of PCTAIRE2 Lys2 labeling site harbouring DLKPQNLLINEKin human Huh-7 cells at 1 uM by KiNativ Profiling analysis relative to control; assay type: cell-based
# Chain of Cyclin-dependent kinase 17 (Homo sapiens) (Q00537 whole entry, looked up): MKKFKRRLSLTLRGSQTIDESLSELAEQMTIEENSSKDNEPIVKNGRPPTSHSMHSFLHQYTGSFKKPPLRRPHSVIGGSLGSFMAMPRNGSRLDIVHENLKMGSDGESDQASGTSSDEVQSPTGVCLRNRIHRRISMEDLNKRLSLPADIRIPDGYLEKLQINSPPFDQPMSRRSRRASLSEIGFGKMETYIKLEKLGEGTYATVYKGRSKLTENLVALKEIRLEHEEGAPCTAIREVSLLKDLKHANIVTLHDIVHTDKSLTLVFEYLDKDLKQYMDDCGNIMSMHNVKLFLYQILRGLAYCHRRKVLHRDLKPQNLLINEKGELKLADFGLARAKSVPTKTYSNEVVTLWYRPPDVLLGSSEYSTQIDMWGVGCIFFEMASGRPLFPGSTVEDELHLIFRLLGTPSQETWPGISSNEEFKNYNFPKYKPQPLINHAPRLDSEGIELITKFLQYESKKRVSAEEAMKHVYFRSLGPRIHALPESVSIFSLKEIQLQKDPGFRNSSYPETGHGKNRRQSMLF
# [4] = target: Serine/threonine-protein kinase 10 (Homo sapiens) (UniProt O94804); assay: Inhibition of LOK (unknown origin) at 1 uM by Ambit Kinomescan binding assay relative to control; values are per cent of control
# Chain of Serine/threonine-protein kinase 10 (Homo sapiens) (O94804 whole entry, looked up): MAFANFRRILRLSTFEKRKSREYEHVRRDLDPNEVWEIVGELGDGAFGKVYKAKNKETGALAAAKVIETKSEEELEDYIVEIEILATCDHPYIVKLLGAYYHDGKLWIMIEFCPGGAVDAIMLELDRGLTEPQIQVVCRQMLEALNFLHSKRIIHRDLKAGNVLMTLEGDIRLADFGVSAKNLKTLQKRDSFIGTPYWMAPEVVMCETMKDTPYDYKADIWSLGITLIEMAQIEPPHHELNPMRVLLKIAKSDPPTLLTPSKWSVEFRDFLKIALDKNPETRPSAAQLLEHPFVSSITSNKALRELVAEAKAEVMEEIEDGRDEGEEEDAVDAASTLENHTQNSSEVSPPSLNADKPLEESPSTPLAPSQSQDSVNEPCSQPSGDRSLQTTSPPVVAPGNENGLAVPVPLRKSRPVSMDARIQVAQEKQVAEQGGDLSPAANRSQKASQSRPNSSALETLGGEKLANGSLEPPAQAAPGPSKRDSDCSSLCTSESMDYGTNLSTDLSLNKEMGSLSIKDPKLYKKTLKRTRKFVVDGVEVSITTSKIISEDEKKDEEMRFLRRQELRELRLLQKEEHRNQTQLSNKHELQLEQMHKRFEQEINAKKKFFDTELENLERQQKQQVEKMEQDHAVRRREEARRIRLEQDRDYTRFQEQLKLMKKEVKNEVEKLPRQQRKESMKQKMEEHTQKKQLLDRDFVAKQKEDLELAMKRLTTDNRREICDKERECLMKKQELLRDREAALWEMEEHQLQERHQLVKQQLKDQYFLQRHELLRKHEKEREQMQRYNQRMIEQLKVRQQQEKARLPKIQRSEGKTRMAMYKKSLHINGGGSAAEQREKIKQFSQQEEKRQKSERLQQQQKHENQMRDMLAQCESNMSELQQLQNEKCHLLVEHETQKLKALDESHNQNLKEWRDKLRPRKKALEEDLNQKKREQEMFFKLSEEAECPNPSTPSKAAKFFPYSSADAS
# [5] = target: Serine/threonine-protein kinase RIO3 (Homo sapiens) (UniProt O14730); assay: Inhibition of RIOK3 (unknown origin) at 1 uM by Ambit Kinomescan binding assay relative to control
# [6] = target: Calcium/calmodulin-dependent protein kinase kinase 2 (Homo sapiens) (UniProt Q96RR4); assay: Inhibition of CaMKK2 Lys1 labeling site in human A-375 cells at 0.05 uM by KiNativ Profiling analysis relative to control; assay type: cell-based
# Chain of Calcium/calmodulin-dependent protein kinase kinase 2 (Homo sapiens) (Q96RR4 2-588 limits assumed): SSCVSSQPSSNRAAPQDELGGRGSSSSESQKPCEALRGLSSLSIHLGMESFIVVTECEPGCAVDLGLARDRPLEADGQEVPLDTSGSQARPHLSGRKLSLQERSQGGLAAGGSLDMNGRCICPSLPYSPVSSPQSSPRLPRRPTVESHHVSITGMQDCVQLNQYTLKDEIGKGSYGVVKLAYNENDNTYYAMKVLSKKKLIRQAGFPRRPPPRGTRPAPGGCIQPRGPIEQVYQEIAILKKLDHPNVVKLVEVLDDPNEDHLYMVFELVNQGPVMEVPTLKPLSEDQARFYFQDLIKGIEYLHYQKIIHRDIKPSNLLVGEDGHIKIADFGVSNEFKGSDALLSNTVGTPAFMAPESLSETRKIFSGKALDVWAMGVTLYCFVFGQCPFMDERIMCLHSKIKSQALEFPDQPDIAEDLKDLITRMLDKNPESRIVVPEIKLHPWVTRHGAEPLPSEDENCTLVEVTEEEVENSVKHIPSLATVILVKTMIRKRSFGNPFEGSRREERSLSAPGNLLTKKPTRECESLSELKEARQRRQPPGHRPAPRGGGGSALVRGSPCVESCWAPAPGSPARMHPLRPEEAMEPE
# [7] = target: Fibroblast growth factor receptor 1 (Homo sapiens) (UniProt P11362); assay: Inhibition of FGFR1 (unknown origin) at 1 uM by Ambit Kinomescan binding assay relative to control; values are per cent of control
# Chain of Fibroblast growth factor receptor 1 (Homo sapiens) (P11362 22-822 limits assumed): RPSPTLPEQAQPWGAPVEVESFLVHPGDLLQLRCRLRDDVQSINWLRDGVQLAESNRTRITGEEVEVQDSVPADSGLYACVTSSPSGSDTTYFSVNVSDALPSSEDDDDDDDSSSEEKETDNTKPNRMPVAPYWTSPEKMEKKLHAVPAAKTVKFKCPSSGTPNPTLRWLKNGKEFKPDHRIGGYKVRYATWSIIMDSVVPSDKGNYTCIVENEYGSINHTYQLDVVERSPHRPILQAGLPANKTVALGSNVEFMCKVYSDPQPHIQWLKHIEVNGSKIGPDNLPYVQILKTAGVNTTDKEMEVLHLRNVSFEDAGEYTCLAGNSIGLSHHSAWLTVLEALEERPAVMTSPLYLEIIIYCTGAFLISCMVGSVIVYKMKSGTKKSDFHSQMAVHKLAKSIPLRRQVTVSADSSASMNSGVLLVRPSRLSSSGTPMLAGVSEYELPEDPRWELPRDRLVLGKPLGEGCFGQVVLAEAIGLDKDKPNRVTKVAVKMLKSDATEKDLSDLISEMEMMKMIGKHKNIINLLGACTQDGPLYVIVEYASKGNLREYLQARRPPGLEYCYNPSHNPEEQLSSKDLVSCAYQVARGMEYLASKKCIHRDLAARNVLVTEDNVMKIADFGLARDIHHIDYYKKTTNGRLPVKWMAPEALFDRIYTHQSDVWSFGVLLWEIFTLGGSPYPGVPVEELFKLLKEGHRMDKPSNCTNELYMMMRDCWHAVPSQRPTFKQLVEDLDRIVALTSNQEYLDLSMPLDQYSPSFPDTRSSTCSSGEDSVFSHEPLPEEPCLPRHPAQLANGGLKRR
# [8] = target: T1, Dual specificity mitogen-activated protein kinase kinase 6 (Homo sapiens) (UniProt P52564); assay: Inhibition of MAP2K6 Lys2 labeling site in human A-375 cells at 0.05 uM by KiNativ Profiling analysis relative to control; assay type: cell-based
# T1 sequence (whole entry): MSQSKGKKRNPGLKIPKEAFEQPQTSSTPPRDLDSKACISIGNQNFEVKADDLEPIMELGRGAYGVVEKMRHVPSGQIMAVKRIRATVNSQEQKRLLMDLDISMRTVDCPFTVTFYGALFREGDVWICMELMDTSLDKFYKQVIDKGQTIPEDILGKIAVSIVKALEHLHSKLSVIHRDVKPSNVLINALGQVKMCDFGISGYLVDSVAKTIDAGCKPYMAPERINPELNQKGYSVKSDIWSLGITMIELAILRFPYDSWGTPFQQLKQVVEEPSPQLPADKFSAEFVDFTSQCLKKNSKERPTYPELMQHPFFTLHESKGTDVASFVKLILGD
# [9] = target: Interleukin-1 receptor-associated kinase 3 (Homo sapiens) (UniProt Q9Y616); assay: Inhibition of IRAK3 (unknown origin) at 10 uM by Ambit Kinomescan binding assay
# Chain of Interleukin-1 receptor-associated kinase 3 (Homo sapiens) (Q9Y616 whole entry): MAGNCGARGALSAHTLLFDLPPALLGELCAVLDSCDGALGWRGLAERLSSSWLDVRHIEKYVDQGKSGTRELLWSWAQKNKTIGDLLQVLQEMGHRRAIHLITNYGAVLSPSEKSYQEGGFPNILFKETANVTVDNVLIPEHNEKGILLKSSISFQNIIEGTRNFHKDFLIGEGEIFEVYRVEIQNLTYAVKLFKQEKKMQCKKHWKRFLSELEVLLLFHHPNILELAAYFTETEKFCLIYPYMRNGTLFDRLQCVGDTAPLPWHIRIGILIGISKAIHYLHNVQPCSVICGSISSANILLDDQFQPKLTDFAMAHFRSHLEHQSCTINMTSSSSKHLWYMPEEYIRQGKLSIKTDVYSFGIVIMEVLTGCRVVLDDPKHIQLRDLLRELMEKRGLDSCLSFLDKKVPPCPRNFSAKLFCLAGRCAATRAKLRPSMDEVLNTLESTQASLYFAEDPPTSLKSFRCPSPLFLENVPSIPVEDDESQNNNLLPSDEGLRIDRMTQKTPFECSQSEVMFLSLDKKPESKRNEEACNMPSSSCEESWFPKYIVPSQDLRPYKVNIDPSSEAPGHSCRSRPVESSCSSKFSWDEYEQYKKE
# [10] = Inhibition of NEK6/7 K2 labeling site harbouring VMHRDIKPANVFITATGVVK in human Huh-7 cells at 1 uM by KiNativ Profiling analysis relative to control; conditions: condition cancer
# [11] = target: T2, Mitogen-activated protein kinase kinase kinase kinase 2 (Homo sapiens) (UniProt Q12851); assay: Inhibition of MAP4K2 Lys2 labeling site in human A-375 cells at 0.5 uM by KiNativ Profiling analysis relative to control; assay type: cell-based
# T2 sequence (whole entry): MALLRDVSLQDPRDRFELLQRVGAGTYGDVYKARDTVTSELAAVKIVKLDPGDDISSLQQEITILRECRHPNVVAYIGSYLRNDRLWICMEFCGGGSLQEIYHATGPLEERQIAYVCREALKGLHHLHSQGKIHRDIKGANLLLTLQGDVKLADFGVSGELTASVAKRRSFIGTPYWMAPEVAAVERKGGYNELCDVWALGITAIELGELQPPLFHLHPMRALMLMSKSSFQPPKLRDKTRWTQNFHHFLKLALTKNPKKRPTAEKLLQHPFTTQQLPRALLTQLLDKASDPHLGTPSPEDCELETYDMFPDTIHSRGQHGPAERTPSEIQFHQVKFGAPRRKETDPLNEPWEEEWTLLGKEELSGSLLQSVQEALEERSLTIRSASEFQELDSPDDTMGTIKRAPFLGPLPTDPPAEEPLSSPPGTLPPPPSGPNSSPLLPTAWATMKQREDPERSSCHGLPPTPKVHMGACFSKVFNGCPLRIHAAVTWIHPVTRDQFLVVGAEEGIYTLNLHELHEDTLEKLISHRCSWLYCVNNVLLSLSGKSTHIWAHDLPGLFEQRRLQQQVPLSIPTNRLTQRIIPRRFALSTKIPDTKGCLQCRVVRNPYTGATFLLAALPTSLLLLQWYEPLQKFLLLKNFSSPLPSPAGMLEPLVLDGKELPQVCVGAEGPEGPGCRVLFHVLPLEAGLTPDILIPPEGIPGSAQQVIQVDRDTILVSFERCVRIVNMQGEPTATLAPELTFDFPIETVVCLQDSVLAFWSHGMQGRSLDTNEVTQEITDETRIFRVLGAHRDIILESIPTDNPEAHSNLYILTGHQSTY
# [12] = target: Mast/stem cell growth factor receptor Kit (Homo sapiens) (UniProt P10721); assay: Inhibition of KIT (unknown origin) at 10 uM by Ambit Kinomescan binding assay relative to control
# MEF = assay: Inhibition of IL-1alpha induced p105 phosphorylation level in mouse MEF cells preincubated for 1 hr followed by IL-1 alpha stimulation and measured after 30 mins by Western blot analysis; assay type: functional, cell-based; conditions: dose 0.01-10 µM
smiles,measurement,setting,value
CNc1cc(Oc2cc(C(=O)Nc3cc(N4CCN(C)CC4)cc(C(F)(F)F)c3)ccc2C)ncn1,inhibition,[1],34.1%
same,inhibition,[2],41.9%
same,inhibition,[3],-2.1%
CCN1CCN(Cc2ccc(NC(=O)c3ccc(C)c(/C=C/c4cnc5[nH]ccc5c4OC)c3)cc2C(F)(F)F)CC1,percent of control,[4],0%
same,inhibition,[5],27%
same,inhibition,[6],3.5%
same,% of control,[7],2.8%
CCN1CCN(Cc2ccc(NC(=O)c3ccc(C)c(Oc4ccnc5[nH]ccc45)c3)cc2C(F)(F)F)CC1,inhibition,[8],-8.5%
same,inhibition,[9],inactive
same,inhibition at 1 µM,[10],-15.7%
same,inhibition,[11],91.1%
same,inhibition,[12],0%
same,inhibition,MEF,Dose-Dependent Effect
